Values after ≈ are worked out from the molar mass of the structure shown.
What was measured:
[1] = tested on: Acinetobacter baumannii (A. baumannii) BAA747; experiment: Antibacterial activity, MIC (Table 4); assay type: cell-based; settings: A. baumannii BAA747, read-out: MIC, BAA747
Outline: (§1)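 Values are MICs in μg/mL, read as the lowest compound concentration at which no growth is visible by eye. They come from a microbroth dilution method.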

[2] = tested on: Klebsiella pneumoniae (K. pneumoniae) 35657; experiment: Antibacterial activity, MIC (Table 4); assay type: cell-based; settings: K. pneumoniae 35657, read-out: MIC, 35657
Outline: as §1

A. baumannii MXX2240 = experiment: Antibacterial activity, MIC, resistant strain (Table 4); assay type: cell-based; settings: Acinetobacter baumannii, MXX2240; resistant A. baumannii MMX2240, multi-drug resistant clinical isolate; read-out: MIC, MMX2240
Outline: as §1

K. pneumoniae MXX1232 = experiment: as above; assay type: cell-based; settings: Klebsiella pneumoniae, MXX1232; resistant K. pneumoniae MMX1232, multi-drug resistant clinical isolate; read-out: MIC, MMX1232
Outline: as §1

E. coli 25922 = experiment: Antibacterial activity, microbroth dilution MIC (Table 1); assay type: cell-based, Escherichia coli; settings: Escherichia coli; microbroth dilution; control Gram-negative E. coli 25922 strain; read-out: MIC, 25922
Outline: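 Microbroth dilution was used. MIC, in μg/mL, is the lowest drug concentration preventing macroscopically visible growth under the test conditions.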

[3] = tested on: Staphylococcus aureus (S. aureus) 29213; experiment: as above; assay type: cell-based; settings: microbroth dilution, Gram-positive S. aureus 29213, read-out: MIC, 29213
Outline: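 In a microbroth dilution test, the minimum inhibitory concentration was defined as the lowest compound level preventing growth seen by eye, and was given in μg/mL.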

[4] = tested on: Escherichia coli (E. coli) BAS849; experiment: as above; assay type: cell-based; settings: microbroth dilution, super sensitive Gram-negative E. coli BAS849, read-out: MIC, BAS849
Outline: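 Broth microdilution; endpoint = no macroscopic growth; value = lowest inhibiting concn, μg/mL.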

[5] = tested on: Pseudomonas aeruginosa (P. aeruginosa) 27853; experiment: Antibacterial activity, MIC (Table 5); assay type: cell-based; settings: P. aeruginosa 27853, read-out: MIC, 27853
Outline: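 MIC in μg/mL from broth microdilution; endpoint is the lowest drug level giving no visible growth.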

E. coli LZ3111 = experiment: Antibacterial activity, MIC, quinolone resistant strain (Table 2); assay type: cell-based; settings: Escherichia coli, LZ3111, read-out: MIC LZ3111
Outline: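 Lowest concentration giving no macroscopically visible growth was taken as the MIC (μg/mL) after microbroth dilution testing.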

SMILES | MIC [1] | MIC [2] | MIC (A. baumannii MXX2240) | MIC (K. pneumoniae MXX1232) | MIC (E. coli 25922) | MIC [3] | MIC [4] | MIC [5] | MIC (E. coli LZ3111)
CCc1c(-c2ccc3cnn(C)c3c2)[nH]c(=O)c(C(=O)O)c1O [Cpd 390, 5-ethyl-4-hydroxy-6-(1-methyl-1H-indazol-6-yl)-2-oxo-1,2-dihydropyridine-3-carboxylic acid] | 12.5 to 150 µg/mL (≈ 39.9 to 479 µM) | 12.5 to 150 µg/mL (≈ 39.9 to 479 µM) | 3.5 to 12.5 µg/mL (≈ 11.2 to 39.9 µM) | 12.5 to 150 µg/mL (≈ 39.9 to 479 µM) | 12.5 to 150 µg/mL (≈ 39.9 to 479 µM) | 12.5 to 150 µg/mL (≈ 39.9 to 479 µM) | 12.5 to 150 µg/mL (≈ 39.9 to 479 µM) | 12.5 to 150 µg/mL (≈ 39.9 to 479 µM) | 3.5 to 12.5 µg/mL (≈ 11.2 to 39.9 µM)
CCc1cc(C(=O)O)c(=O)[nH]c1-c1ccc2nncn2c1.Cl [Cpd 50, 6-([1,2,4]triazolo[4,3-a]pyridin-6-yl)-5-ethyl-2-oxo-1,2-dihydropyridine-3-carboxylic acid hydrochloride] | 12.5 to 150 µg/mL | 12.5 to 150 µg/mL | 12.5 to 150 µg/mL | 12.5 to 150 µg/mL | 12.5 to 150 µg/mL | 12.5 to 150 µg/mL | 12.5 to 150 µg/mL | 12.5 to 150 µg/mL | 12.5 to 150 µg/mL
CCc1c(-c2ccc3c(c2)cc2n3CC(N(C)C)C2)[nH]c(=O)c(C(=O)O)c1O.Cl (stereo not drawn) [Cpd 418, 6-(2-(dimethylamino)-2,3-dihydro-1H-pyrrolo[1,2-a]indol-7-yl)-5-ethyl-4-hydroxy-2-oxo-1,2-dihydropyridine-3-carboxylic acid hydrochloride] | 3.5 to 12.5 µg/mL | 3.5 to 12.5 µg/mL | 3.5 to 12.5 µg/mL | 12.5 to 150 µg/mL | 3.5 to 12.5 µg/mL | 12.5 to 150 µg/mL | 3.5 to 12.5 µg/mL | 12.5 to 150 µg/mL | < 1 µg/mL
CCNCc1cc2ccc(-c3[nH]c(=O)c(C(=O)O)c(O)c3CC)cc2[nH]1.Cl [Cpd 442, 5-ethyl-6-(2-((ethylamino)methyl)-1H-indol-6-yl)-4-hydroxy-2-oxo-1,2-dihydropyridine-3-carboxylic acid hydrochloride] | 12.5 to 150 µg/mL | 3.5 to 12.5 µg/mL | 12.5 to 150 µg/mL | 12.5 to 150 µg/mL | 3.5 to 12.5 µg/mL | 12.5 to 150 µg/mL | 1 to 3.5 µg/mL | 12.5 to 150 µg/mL | 12.5 to 150 µg/mL
Cc1c(-c2ccc3c(c2)cc(CNC2(C)CC2)n3C)[nH]c(=O)c(C(=O)O)c1O [Cpd 356, 4-hydroxy-5-methyl-6-(1-methyl-2-((1-methylcyclopropylamino)methyl)-1H-indol-5-yl)-2-oxo-1,2-dihydropyridine-3-carboxylic acid] | < 1 µg/mL | 3.5 to 12.5 µg/mL (≈ 9.18 to 32.8 µM) | < 1 µg/mL | 12.5 to 150 µg/mL (≈ 32.8 to 393 µM) | 3.5 to 12.5 µg/mL (≈ 9.18 to 32.8 µM) | 3.5 to 12.5 µg/mL (≈ 9.18 to 32.8 µM) | < 1 µg/mL | 12.5 to 150 µg/mL (≈ 32.8 to 393 µM) | < 1 µg/mL
CCc1c(-c2ccc3c4c([nH]c3c2)CCNC4)[nH]c(=O)c(C(=O)O)c1O [Cpd 450, 5-ethyl-4-hydroxy-2-oxo-6-(2,3,4,5-tetrahydro-1H-pyrido[4,3-b]indol-7-yl)-1,2-dihydropyridine-3-carboxylic acid] | 12.5 to 150 µg/mL (≈ 35.4 to 424 µM) | 3.5 to 12.5 µg/mL (≈ 9.9 to 35.4 µM) | 12.5 to 150 µg/mL (≈ 35.4 to 424 µM) | 12.5 to 150 µg/mL (≈ 35.4 to 424 µM) | 12.5 to 150 µg/mL (≈ 35.4 to 424 µM) | 12.5 to 150 µg/mL (≈ 35.4 to 424 µM) | 3.5 to 12.5 µg/mL (≈ 9.9 to 35.4 µM) | 12.5 to 150 µg/mL (≈ 35.4 to 424 µM) | 12.5 to 150 µg/mL (≈ 35.4 to 424 µM)
CCc1c(-c2cc3cc(F)c(C)cc3n2C)[nH]c(=O)c(C(=O)O)c1O [Cpd 411, 5-ethyl-6-(5-fluoro-1,6-dimethyl-1H-indol-2-yl)-4-hydroxy-2-oxo-1,2-dihydropyridine-3-carboxylic acid] | 12.5 to 150 µg/mL (≈ 36.3 to 436 µM) | 12.5 to 150 µg/mL (≈ 36.3 to 436 µM) | 12.5 to 150 µg/mL (≈ 36.3 to 436 µM) | 12.5 to 150 µg/mL (≈ 36.3 to 436 µM) | 12.5 to 150 µg/mL (≈ 36.3 to 436 µM) | 3.5 to 12.5 µg/mL (≈ 10.2 to 36.3 µM) | 1 to 3.5 µg/mL (≈ 2.9 to 10.2 µM) | 12.5 to 150 µg/mL (≈ 36.3 to 436 µM) | 12.5 to 150 µg/mL (≈ 36.3 to 436 µM)
Cc1c(-c2ccc3c(c2)cc(CNC(C)CO)n3C)[nH]c(=O)c(C(=O)O)c1O (stereo not drawn) [Cpd 349, 4-hydroxy-6-(2-((1-hydroxypropan-2-ylamino)methyl)-1-methyl-1H-indol-5-yl)-5-methyl-2-oxo-1,2-dihydropyridine-3-carboxylic acid] | 12.5 to 150 µg/mL (≈ 32.4 to 389 µM) | 3.5 to 12.5 µg/mL (≈ 9.08 to 32.4 µM) | 12.5 to 150 µg/mL (≈ 32.4 to 389 µM) | 12.5 to 150 µg/mL (≈ 32.4 to 389 µM) | 12.5 to 150 µg/mL (≈ 32.4 to 389 µM) | 12.5 to 150 µg/mL (≈ 32.4 to 389 µM) | 1 to 3.5 µg/mL (≈ 2.59 to 9.08 µM) | 12.5 to 150 µg/mL (≈ 32.4 to 389 µM) | 3.5 to 12.5 µg/mL (≈ 9.08 to 32.4 µM)
Cc1c(-c2ccc3c(cnn3C)c2)[nH]c(=O)c(C(=O)O)c1O [Cpd 394, 4-hydroxy-5-methyl-6-(1-methyl-1H-indazol-5-yl)-2-oxo-1,2-dihydropyridine-3-carboxylic acid] | 12.5 to 150 µg/mL (≈ 41.8 to 501 µM) | 12.5 to 150 µg/mL (≈ 41.8 to 501 µM) | < 1 µg/mL | 12.5 to 150 µg/mL (≈ 41.8 to 501 µM) | 12.5 to 150 µg/mL (≈ 41.8 to 501 µM) | 12.5 to 150 µg/mL (≈ 41.8 to 501 µM) | 3.5 to 12.5 µg/mL (≈ 11.7 to 41.8 µM) | 12.5 to 150 µg/mL (≈ 41.8 to 501 µM) | < 1 µg/mL

— US9409905B2, “Antibacterial compounds and methods for use” (PTC THERAPEUTICS, INC., priority 2011, dated 2016)
